This passage reports cell protection, EC50 and melting point results from patent US6506738B1, “Benzimidazolone antiviral agents” (Bristol-Myers Squibb Company, priority 2000, dated 2003).

For data set [1], the system named is respiratory syncytial virus Long strain. The data set is described as follows: Antiviral activity against respiratory syncytial virus in HEp-2 cells (MTT cell protection). It counts as cell-based. As to the method:
The antiviral activity of these compounds against respiratory syncytial virus was determined in HEp-2 (ATCC CCL 23) cells that were seeded in 96 well microtiter plates at 1.5×10^4 cells/100 μL/well in DMEM (Dulbecco's Modified Eagle's Medium) supplemented with penicillin, streptomycin, glutamine, and 10% fetal bovine serum. The cells were incubated overnight at 37° C., the culture medium was removed, and cells were infected (100 μL volume in medium containing 2% fetal bovine serum) with respiratory syncytial virus Long strain at 5000 plaque forming units/mL. The compounds, 100 μL at appropriate dilution, were added to the cells 1 hour post infection. After incubation for 4 days at 37° C., the plates were stained with MTT solution (3-[4,5-dimethlythiazol-2-yl]-2,5-diphenyltetrazolium bromide) and incubated for 4 hours at 37° C. The media was aspirated from the cells and 100 μL/well of acidified isopropanol (per liter: 900 mL isopropanol, 100 mL Triton×100, and 4 mL conc. HCl) was added. Plates were incubated for 15 minutes at room temperature with shaking, and an optical density (OD 540) reading at 540 nanometer (nm) was obtained. The optical density reading is proportional to the number of viable cells. The increase in the number of viable cells reflects the protective, antiviral activity of the compound. […]

The melting point is the temperature of the solid-liquid transition.

`NC(=O)c1ncn([C@@H]2O[C@H](CO)[C@@H](O)[C@H]2O)n1` [Ribavirin] registered a cell protection in data set [1] (at 2.5 μg/mL (corresponding to 10.2 μM), HEp-2 cells, RSV Long strain) of 100%. Also, the EC50 in data set [1] (human respiratory syncytial virus, HEp-2 cells infected with RSV Long strain, compound added 1 hour post infection, 4 days, read-out: EC50 (concentration that produces 50% cell protection)) stood at 3 µM.
For `O=c1[nH]c2ccccc2n1Cc1nc2ccccc2n1CCn1cnnn1` [Compound 184], the melting point is over 200 °C.
